Experimental findings from ChEMBL document CHEMBL4837213, “Hybrids between H2S-donors and betamethasone 17-valerate or triamcinolone acetonide inhibit mast cell degranulation and promote hyperpolarization of bronchial smooth muscle cells” (Eur J Med Chem, 2021) are described below.

Data set [1] deals with RBL-2H3. The data set can be described thus: (§1) Inhibition of DNP-HAS-stimulated mast cell degranulation in rat RBL-2H3 cells assessed as reduction in beta-hexosaminidase release at 100 uM incubated for 5 mins followed by DNP-HAS stimulation for 1 hr by multiplate reader analysis. The format is functional. To be noted: time 65.0 min.
A short description of data set [2]: (§2) Bronchodilatory activity in human BSMC cells assessed as induction of membrane hyperpolarization at 300 uM by spectrofluorometric analysis relative to NS1619. The format is functional.
In data set [3] the test system is RBL-2H3. The data set can be described thus: (§3) Inhibition of DNP-HAS-stimulated mast cell degranulation in rat RBL-2H3 cells assessed as reduction in beta-hexosaminidase release at 300 uM incubated for 5 mins followed by DNP-HAS stimulation for 1 hr by multiplate reader analysis. To be noted: time 65.0 min. The format is functional.
A short description of data set [4]: Drug metabolism in human BSMC cells assessed as intracellular H2S release by measuring increase in fluorescence index at 100 uM measured every 5 mins for 60 mins by WSP-1 dye based spectrofluorometric analysis. The format is ADME, cell-based. To be noted: 1 h.
Data set [5] is described as follows: Drug metabolism in human BSMC cells assessed as intracellular H2S release by measuring increase in fluorescence index at 300 uM measured every 5 mins for 60 mins by WSP-1 dye based spectrofluorometric analysis. The format is ADME, cell-based. To be noted: 1 h.
The nature of data set [6]: (§4) Bronchodilatory activity in human BSMC cells assessed as induction of membrane hyperpolarization at 100 uM by spectrofluorometric analysis relative to NS1619. The format is functional.
Data set [7] is described as follows: Inhibition of DNP-HAS-stimulated mast cell degranulation in rat RBL-2H3 cells assessed as reduction in beta-hexosaminidase release at 1 mM incubated for 5 mins followed by DNP-HAS stimulation for 1 hr by multiplate reader analysis. The format is functional. To be noted: RBL-2H3, 1.083 h, time 65 min.
The nature of data set [8]: as §1. The format is functional. Particulars: RBL-2H3, 1.083 h, time 65 min.
Data set [9] relates to BSMC. The data set is described as §2. The format is functional.
Data set [10] in a line: as §3. The format is functional. Particulars: RBL-2H3, 1.083 h, time 65 min.
Data set [11] relates to BSMC. Described as §4. The format is functional.

Activity calls are given as the source filed them. The rule behind the calls is not given here.

Usually inhibition stands for the relative decrease from the control value, in per cent. With `CC1(C)O[C@@H]2C[C@H]3[C@@H]4CCC5=CC(=O)C=C[C@]5(C)[C@@]4(F)[C@@H](O)C[C@]3(C)[C@]2(C(=O)COC(=O)CCC(=O)Oc2ccc(N=C=S)cc2)O1`, the inhibition result in the data set with RBL-2H3 [1] and in the data set with RBL-2H3 [3] was “Active” each time. Besides, the “fold change (FC)” value in data set [2] and in data set [6] was 4 in each case. Further, the Drug metabolism result in [4] and in [5] was “Metabolite_Detected” throughout.
`CCCCC(=O)O[C@]1(C(=O)COC(=O)CCC(=O)Oc2ccc(-c3cc(=S)ss3)cc2)[C@@H](C)C[C@H]2[C@@H]3CCC4=CC(=O)C=C[C@]4(C)[C@@]3(F)[C@@H](O)C[C@@]21C`: the Drug metabolism entry in data set [4] and in data set [5] was “Metabolite_Notdetected” in each case.
With `CC1(C)O[C@@H]2C[C@H]3[C@@H]4CCC5=CC(=O)C=C[C@]5(C)[C@@]4(F)[C@@H](O)C[C@]3(C)[C@]2(C(=O)COC(=O)CCC(=O)Oc2ccc(C(N)=S)cc2)O1`, the Drug metabolism entry in data set [4] and in data set [5] was “Metabolite_Notdetected” each time.
As to `O=C(O)c1cc(=O)c2c(OCC(O)COc3cccc4oc(C(=O)O)cc(=O)c34)cccc2o1` [CROMOLYN], in data set [7], the inhibition at 1000 µM worked out at 20%.
Take `CC1(C)O[C@@H]2C[C@H]3[C@@H]4CCC5=CC(=O)C=C[C@]5(C)[C@@]4(F)[C@@H](O)C[C@]3(C)[C@]2(C(=O)CO)O1`: in the data set with RBL-2H3 [3], the inhibition entry is “inactive”.
As to `CCCCC(=O)O[C@]1(C(=O)COC(=O)CCC(=O)Oc2ccc(C(N)=S)cc2)[C@@H](C)C[C@H]2[C@@H]3CCC4=CC(=O)C=C[C@]4(C)[C@@]3(F)[C@@H](O)C[C@@]21C`, the Drug metabolism entry in data set [4] and in data set [5] was “Metabolite_Detected” throughout.
For the compound `CCCCC(=O)O[C@]1(C(=O)COC(=O)CCC(=O)Oc2ccc(N=C=S)cc2)[C@@H](C)C[C@H]2[C@@H]3CCC4=CC(=O)C=C[C@]4(C)[C@@]3(F)[C@@H](O)C[C@@]21C`, the inhibition result with RBL-2H3 [1] and in the data set on RBL-2H3 [3] was “Active” each time. Also, the “fold change (FC)” value in data set [2] and in data set [6] was 4 throughout. The Drug metabolism entry in data set [4] and in data set [5] was “Metabolite_Detected” throughout.
On to `Oc1ccc(-c2cc(=S)ss2)cc1`, for which the Drug metabolism result in [4] and in [5] was “Metabolite_Notdetected” each time.
`CCCCC(=O)O[C@]1(C(=O)CO)[C@@H](C)C[C@H]2[C@@H]3CCC4=CC(=O)C=C[C@]4(C)[C@@]3(F)[C@@H](O)C[C@@]21C`: in the data set with RBL-2H3 [3], the inhibition entry was “inactive”.
On to `NC(=S)c1ccc(O)cc1`, for which the Drug metabolism result is reported as “Metabolite_Notdetected” in data set [4] and “Metabolite_Detected” in [5].
For `CC1(C)O[C@@H]2C[C@H]3[C@@H]4CCC5=CC(=O)C=C[C@]5(C)[C@@]4(F)[C@@H](O)C[C@]3(C)[C@]2(C(=O)COC(=O)CCC(=O)Oc2ccc(-c3cc(=S)ss3)cc2)O1`, the Drug metabolism entry in data set [4] is “Metabolite_Notdetected”; in data set [5] it was “Metabolite_Detected”.
Take `C=CCSSCC=C` [DIALLYLDISULFIDE]: in data set [4], the Drug metabolism entry is recorded as “Metabolite_Detected”.
For `Oc1ccc(N=C=S)cc1`, the inhibition at 100 µM in data set [8] worked out at 75%. Moreover, the result in the data set with BSMC [9] and in the data set with BSMC [11] was Active. In data set [10], the inhibition at 300 µM came out at 75%. Also, the Drug metabolism result in data set [4] and in [5] was “Metabolite_Detected” each time.
